Experiments:
[1] = biological target: T1, MYCbHLHZip (Homo sapiens, UniProt P01106); test: Assay 2A MYC binding MST assay; conditions: approximately 200 nM labelled MYC, compound titrated
T1 construct: An amino coupling procedure was used to immobilize MYCbHLHZip protein on a CM5 sensor chip
Procedure: (§1) FIG. 2: A) MST assay of Example 1 effect on MYC and MAX, respectively. Recombinant MYC bHLHZip and MAX bHLHZip proteins were titrated, respectively, in a fixed concentration (3 μM) of Example 1. Changes in fluorescence were measured and normalized to control (buffer). Data are shown as mean±standard deviation of 6-8 biological repeats. B) MST assay of MYC (reverse MST). A fixed concentration of 200 nM labeled MYC was mixed with different concentrations of Example 1 as indicated. Data are shown as mean±standard deviation of 5 biological repeats. C) MST assay of Example 2 effect on MYC. D) MST assay of MYC with a control compound (non-binder).
Assay 2A. MYC Binding MST Assay
(§2) The MYC MST assay was performed as described above (Biological example 1—Assay 1A), except that the fluorescent molecule was either protein or Example 1. The example compound was kept at a fix concentration of 3 μM in PBS supplemented with 0.05% Tween-20, while MYCbHLHZip or MAX was titrated. The migration of example compound changed at MYC protein concentrations above 1 μM, but was unaffected with MAX up to highest concentration tested (15 μM) (FIG. 2A). […]

[2] = biological target: T2, MAX bHLHZip (Homo sapiens, UniProt P61244); test: Assay 2A MST assay with MAX; type: binding; conditions: compound fixed at 3 μM, MAX titrated, highest concentration tested 15 μM
T2 construct: Recombinant MYC bHLHZip and MAX bHLHZip proteins were titrated
T2 sequence (P61244 22-102): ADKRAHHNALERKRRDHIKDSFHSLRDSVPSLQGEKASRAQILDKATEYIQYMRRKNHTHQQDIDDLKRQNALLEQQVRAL
Procedure: as §1
as §2, with “2A). In a reverse experiment, Example 1 was titrated in a fixed protein concentration in PBS supplemented with 0.05% Tween-20 and 1% DMSO as described above after labelling primary amines of the protein using the Protein labelling kit GREEN-NHS (NanoTemper) according to manufacturer's protocol.” for “2A).”

[3] = biological target: T3, MYC:MAX (MYC-GLuc-C + MAX-GLuc-N) in HEK293 cells (Homo sapiens, UniProt P01106); test: Assay 3C GLuc complementation assay; type: cell-based
T3 construct: expressed in transfected cells; host or cells: HEK293 (also COS-7)
T3 sequence (P01106 whole entry): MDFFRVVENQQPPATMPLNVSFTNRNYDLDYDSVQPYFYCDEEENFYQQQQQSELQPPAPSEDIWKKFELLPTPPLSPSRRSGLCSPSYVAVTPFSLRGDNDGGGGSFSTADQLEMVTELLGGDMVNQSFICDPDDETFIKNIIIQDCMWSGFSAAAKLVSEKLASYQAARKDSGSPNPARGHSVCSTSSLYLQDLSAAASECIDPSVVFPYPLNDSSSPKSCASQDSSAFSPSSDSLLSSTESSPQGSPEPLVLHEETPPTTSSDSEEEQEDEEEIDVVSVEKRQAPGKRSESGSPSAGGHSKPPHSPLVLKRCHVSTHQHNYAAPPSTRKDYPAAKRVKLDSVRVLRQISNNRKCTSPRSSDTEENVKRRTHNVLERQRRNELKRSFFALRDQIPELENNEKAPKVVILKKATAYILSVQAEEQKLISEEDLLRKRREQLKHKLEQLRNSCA
Procedure: FIG. 4: A) Endogenous MYC:MAX (upper panel) and FRA1:JUN (lower panel) interactions as visualized as fluorescent red dots by isPLA. Nuclei were counterstained with DAPI (blue). Cells were treated with 10 μM of indicated compounds for 16 hours and subjected to isPLA using pairs of MYC and MAX and of FRA1 and JUN antibodies, respectively. As negative control, primary antibody pairs but only one oligo-conjugated secondary antibody was used. B) Quantification of MYC:MAX and C) FRA1:JUN isPLA, representing an average number of nuclear dots per cell from three microscopic fields normalized to corresponding values for DMSO-treated cells. […] 1st-4th lanes from top; coimmunoprecipitated MAX, immunoprecipitated MYC, total levels of MAX and ACTIN, respectively, as determined by western blot analysis. E) MYC:MAX GLuc assay in cells. […] 24 hours later cells were treated with […] of Example 1, Example 2 and control compound for 16 hours and thereafter analyzed in a dual luciferase assay. The ratio of Gaussia/Firefly luciferase luminescence were calculated and normalized to DMSO-treated cells.
The protein fragment complementation assay using the Gaussia luciferase (GLuc) has been described (Remy, I. & Michnick, S. W. A highly sensitive protein-protein interaction assay based on Gaussia luciferase. Nat Methods 3, 977-979, doi:10.1038/nmeth979 (2006)). […] 24 hours later cells were treated with compound or DMSO. After another 17 hours the cells were harvested and lyzed in passive lysis buffer (Promega) supplemented with complete protease inhibitor (Roche). After 60 min incubation at room temperature 20 μM D-luciferin was added (substrate of Firefly luciferase) and luminescence was measured in a Lumat LB9501 (Berthold) or OmegaFluostar (BMG Labtech) luminometer. Directly after, the Gaussia luciferase substrate Coelenterazine (Promega) was added to a final concentration of 20 μM and the luciferase activity was measured. The ratio between Gaussia and Firefly luciferase values were calculated and normalized to DMSO-treated control cells.

[4] = tested on: MYCN-amplified neuroblastoma cells (SK-N-DZ, Kelly, IMR-32); test: Assay 5A neuroblastoma cell growth (WST-1), MYCN-amplified; type: cell-based; conditions: Homo sapiens, second run
Procedure: FIG. 6: A-B) Neuroblastoma cell lines with (SK-N-DZ, Kelly and IMR-32) or without (SK-N-F1, SK-N-RA and SK-N-AS) MYCN-amplification were exposed to different concentrations of Example 1, Example 2 and control compound, respectively, for 48 hours. Cell growth and viability was estimated by measuring metabolic activity. C) Growth of TGR-1 (wt), HO15.19 (MYC knockout) and HOmyc3 (MYC reconstituted HO15.19) Rat1 fibroblasts, as measured by the WST-1 assay after treatment with Example 1. Data are shown as mean±standard deviation of 3-5 biological experiments, each with 3 technical repeats.
Assay 5A: Neuroblastoma Cell Growth
Neuroblastoma cell lines with (SK-N-DZ, Kelly and IMR-32) or without (SK-N-F1, SK-N-RA and SK-N-AS) MYCN-amplification were exposed to different concentrations of example compounds for 48 hours. Cell growth and viability was estimated by measuring metabolic activity by incubating cells in triplicates with WST-1 (Roche) in medium at 37° C. and 5% CO2 for 2 hours after which absorbance was measured with an Omega Fluostar (BMG Labtech) in a 96 well plate format.

T1 sequence (P01106 368-449 limits assumed): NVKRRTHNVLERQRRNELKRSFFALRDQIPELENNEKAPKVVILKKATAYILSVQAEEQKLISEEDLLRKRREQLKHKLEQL

For `CCOc1ccc2nc3cc(/N=N/c4ccc(N)nc4N)ccc3c(N)c2c1` [Example 1, 3-((9-amino-7-ethoxyacridin-3-yl)diazenyl)pyridine-2,6-diamine sulphate hydrate], the “compound concentration affecting migration of MYC (reverse MST)” value [1] was 200 to 400 nM, the “Effect on thermophoresis (MAX protein concentration)” value [2] was > 15 µM and the inhibition at 10 µM ([3]; HEK293) was 50%. It also gave an IC50 ([3]; exogenous MYC:MAX) of 10 µM and a GI50 [4] of 2.5 µM.

From US11896589B2, “Diazinyl amino acridines and medical uses thereof” (MyCural Therapeutics AB, priority 2018, dated 2024)
